Source: ChEMBL document CHEMBL4396865, “Current advances of triazole alcohols derived from fluconazole: Design, in vitro and in silico studies” (2019)
Values after ≈ are worked out from the molar mass of the structure shown.

What was measured:
Assay type in all cases: functional
Trichophyton rubrum = experiment: Antifungal activity against Trichophyton rubrum after 7 days by NCCLS protocol based method; conditions: 168 h
Nannizzia gypsea = experiment: Antifungal activity against Microsporum gypseum after 7 days by NCCLS protocol based method; conditions: 168 h
Cryptococcus neoformans = experiment: Antifungal activity against Cryptococcus neoformans after 72 hrs by NCCLS protocol based method
Candida albicans = experiment: Antifungal activity against Candida albicans after 24 hrs by NCCLS protocol based method
Candida tropicalis = experiment: Antifungal activity against Candida tropicalis after 24 hrs by NCCLS protocol based method
Fonsecaea compacta = experiment: Antifungal activity against Fonsecaea compacta after 24 hrs by NCCLS protocol based method
Candida parapsilosis = experiment: Antifungal activity against Candida parapsilosis after 24 hrs by NCCLS protocol based method; conditions: Lodderomyces parapsilosis

Row | Compound | MIC (Trichophyton rubrum) [ng/mL] | MIC (Nannizzia gypsea) [ng/mL] | MIC (Cryptococcus neoformans) [ng/mL] | MIC (Candida albicans) [ng/mL] | MIC (Candida tropicalis) [ng/mL] | MIC80 (Trichophyton rubrum) [ng/mL] | MIC80 (Fonsecaea compacta) [ng/mL] | MIC80 (Candida parapsilosis) [ng/mL] | MIC80 (Cryptococcus neoformans) [ng/mL] | MIC80 (Candida albicans) [ng/mL] | MIC80 (Candida tropicalis) [ng/mL]
1 | CN(CCCCOc1ccc(Cl)cc1)CC(O)(Cn1cncn1)c1ccc(F)cc1F (configuration not stated) | 1 (≈ 2.22 nM) | 1 (≈ 2.22 nM) | 1 (≈ 2.22 nM) | 1 (≈ 2.22 nM) | 1 (≈ 2.22 nM) |  |  |  |  |  | 
2 | O=C(OC1CCN(CC(O)(Cn2cncn2)c2ccc(F)cc2F)CC1)c1ccccc1 (configuration not stated) |  |  |  |  |  | 3.9 to 62.5 (≈ 8.81 to 141 nM) | 3.9 to 62.5 (≈ 8.81 to 141 nM) | 3.9 to 62.5 (≈ 8.81 to 141 nM) | 3.9 to 62.5 (≈ 8.81 to 141 nM) | 3.9 to 62.5 (≈ 8.81 to 141 nM) | 3.9 to 62.5 (≈ 8.81 to 141 nM)
3 | CC(C)(C)c1ccc(C(=O)OC2CCN(CC(O)(Cn3cncn3)c3ccc(F)cc3F)CC2)cc1 (configuration not stated) |  |  |  |  |  | 3.9 to 62.5 (≈ 7.82 to 125 nM) | 3.9 to 62.5 (≈ 7.82 to 125 nM) | 3.9 to 62.5 (≈ 7.82 to 125 nM) | 3.9 to 62.5 (≈ 7.82 to 125 nM) | 3.9 to 62.5 (≈ 7.82 to 125 nM) | 3.9 to 62.5 (≈ 7.82 to 125 nM)
4 | CCCCCCc1ccc(C(=O)OC2CCN(CC(O)(Cn3cncn3)c3ccc(F)cc3F)CC2)cc1 (configuration not stated) |  |  |  |  |  | 3.9 to 62.5 (≈ 7.41 to 119 nM) | 3.9 to 62.5 (≈ 7.41 to 119 nM) | 3.9 to 62.5 (≈ 7.41 to 119 nM) | 3.9 to 62.5 (≈ 7.41 to 119 nM) | 3.9 to 62.5 (≈ 7.41 to 119 nM) | 3.9 to 62.5 (≈ 7.41 to 119 nM)
5 | O=C(OC1CCN(CC(O)(Cn2cncn2)c2ccc(F)cc2F)CC1)c1ccccc1Br (configuration not stated) |  |  |  |  |  | 3.9 to 62.5 (≈ 7.48 to 120 nM) | 3.9 to 62.5 (≈ 7.48 to 120 nM) | 3.9 to 62.5 (≈ 7.48 to 120 nM) | 3.9 to 62.5 (≈ 7.48 to 120 nM) | 3.9 to 62.5 (≈ 7.48 to 120 nM) | 3.9 to 62.5 (≈ 7.48 to 120 nM)
6 | O=C(OC1CCN(CC(O)(Cn2cncn2)c2ccc(F)cc2F)CC1)c1cccc(Cl)c1 (configuration not stated) |  |  |  |  |  | 3.9 to 62.5 (≈ 8.18 to 131 nM) | 3.9 to 62.5 (≈ 8.18 to 131 nM) | 3.9 to 62.5 (≈ 8.18 to 131 nM) | 3.9 to 62.5 (≈ 8.18 to 131 nM) | 3.9 to 62.5 (≈ 8.18 to 131 nM) | 3.9 to 62.5 (≈ 8.18 to 131 nM)
7 | CN(CCCOc1ccccc1Cl)CC(O)(Cn1cncn1)c1ccc(F)cc1F (configuration not stated) | 1 to 16 (≈ 2.29 to 36.6 nM) | 1 to 16 (≈ 2.29 to 36.6 nM) | 1 to 16 (≈ 2.29 to 36.6 nM) | 1 to 16 (≈ 2.29 to 36.6 nM) | 1 to 16 (≈ 2.29 to 36.6 nM) |  |  |  |  |  | 
8 | Cc1cccc(OCCCN(C)CC(O)(Cn2cncn2)c2ccc(F)cc2F)c1 (configuration not stated) | 1 (≈ 2.4 nM) | 1 (≈ 2.4 nM) | 1 (≈ 2.4 nM) | 1 (≈ 2.4 nM) | 1 (≈ 2.4 nM) |  |  |  |  |  | 
9 | Cc1ccc(OCCCCN(C)CC(O)(Cn2cncn2)c2ccc(F)cc2F)cc1 (configuration not stated) | 1 (≈ 2.32 nM) | 1 (≈ 2.32 nM) | 1 (≈ 2.32 nM) | 1 (≈ 2.32 nM) | 1 (≈ 2.32 nM) |  |  |  |  |  | 
10 | Cc1ccc(C(=O)OC2CCN(CC(O)(Cn3cncn3)c3ccc(F)cc3F)CC2)c(C)c1 (configuration not stated) |  |  |  |  |  | 3.9 to 62.5 (≈ 8.29 to 133 nM) | 3.9 to 62.5 (≈ 8.29 to 133 nM) | 3.9 to 62.5 (≈ 8.29 to 133 nM) | 3.9 to 62.5 (≈ 8.29 to 133 nM) | 3.9 to 62.5 (≈ 8.29 to 133 nM) | 3.9 to 62.5 (≈ 8.29 to 133 nM)
11 | Cc1cccc(C(=O)OC2CCN(CC(O)(Cn3cncn3)c3ccc(F)cc3F)CC2)c1 (configuration not stated) |  |  |  |  |  | 3.9 to 62.5 (≈ 8.54 to 137 nM) | 3.9 to 62.5 (≈ 8.54 to 137 nM) | 3.9 to 62.5 (≈ 8.54 to 137 nM) | 3.9 to 62.5 (≈ 8.54 to 137 nM) | 3.9 to 62.5 (≈ 8.54 to 137 nM) | 3.9 to 62.5 (≈ 8.54 to 137 nM)
